pIC50: −log10 of the molar value.
Target: T1, autotaxin (ATX) (Homo sapiens, UniProt Q13822)
T1 construct: conditioned medium from the human melanoma cell line, MDA-MB-4355, which endogenously expresses autotaxin; host or cells: MDA-MB-435S human melanoma cells; serum-free conditioned medium, concentrated 20-fold
Assay: Native Autotaxin Choline Release Assay
Format: biochemical
Details: autotaxin in conditioned medium from human melanoma cell line; choline released from LPC; read-out: MDA-MB-435S Assay IC50
Summary of the method: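 Native ATX from conditioned serum-free, phenol-red-free DMEM of confluent cells cultured 48 h; LPC as substrate. Released choline detected with choline oxidase/peroxidase/4-aminoantipyrine colour mix in 50 mM Tris pH 8, 10 min at 37 °C, absorbance 555 nm; choline quantified against standard curve, equated to LPA formed.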

Row | Compound | pIC50
1 | CCn1cc(-n2c(C)c(Sc3cc(F)cc(C(=O)O)c3)c3ccc(Cl)c(F)c32)cn1 [Compound 4-2, 3-[6-Chloro-1-(1-ethyl-1H-pyrazol-4-yl)-7-fluoro-2-methyl-1H-indol-3-ylsulfanyl]-5-fluoro-benzoic acid] | > 6.52
2 | CCCn1cc(-n2c(C)c(Sc3cc(F)cc(C(=O)O)c3)c3ccc(Cl)c(F)c32)cn1 [Compound 4-5, 3-[6-Chloro-7-fluoro-2-methyl-1-(1-propyl-1H-pyrazol-4-yl)-1H-indol-3-ylsulfanyl]-5-fluoro-benzoic acid] | > 6.52
3 | Cc1c(Sc2cc(F)cc(C(=O)O)c2)c2ccc(Cl)c(F)c2n1-c1cnn(C(C)C)c1 [Compound 4-6, 3-[6-Chloro-7-fluoro-1-(1-isopropyl-1H-pyrazol-4-yl)-2-methyl-1H-indol-3-ylsulfanyl]-5-fluoro-benzoic acid] | > 6.52
4 | CCCn1cc(-n2c(C)c(Sc3ccc(OC)c(C(=O)O)c3)c3ccc(Cl)c(F)c32)cn1 [Compound 4-10, 5-[6-Chloro-7-fluoro-2-methyl-1-(1-propyl-1H-pyrazol-4-yl)-1H-indol-3-ylsulfanyl]-2-methoxy-benzoic acid] | > 6.52
5 | CCCn1cc(-n2c(C)c(Sc3ccc(C)c(C(=O)O)c3)c3ccc(Cl)c(F)c32)cn1 [Compound 4-13, 5-[6-Chloro-1-(1-propyl-1H-pyrazol-4-yl)-7-fluoro-2-methyl-1H-indol-3-ylsulfanyl]-2-methyl-benzoic acid] | > 6.52
6 | CCCn1cc(-n2c(C)c(Sc3ccc(C(F)(F)F)c(CC(=O)O)c3)c3ccc(Cl)c(F)c32)cn1 [Compound 4-14, {5-[6-Chloro-7-fluoro-2-methyl-1-(1-propyl-1H-pyrazol-4-yl)-1H-indol-3-ylsulfanyl]-2-trifluoromethyl-phenyl}-acetic acid] | > 6.52

Next, values leading:

Row | pIC50 | Compound
7 | > 6.52 | CCn1cc(-n2c(C)c(Sc3cccc(C(=O)O)c3F)c3ccc(Cl)c(F)c32)cn1 [Compound 4-3, 3-[6-Chloro-1-(1-ethyl-1H-pyrazol-4-yl)-7-fluoro-2-methyl-1H-indol-3-ylsulfanyl]-2-fluoro-benzoic acid]
8 | > 6.52 | CCCn1cc(-n2c(C)c(Sc3cccc(C(=O)O)c3F)c3ccc(Cl)c(F)c32)cn1 [Compound 4-4, 3-[6-Chloro-7-fluoro-2-methyl-1-(1-propyl-1H-pyrazol-4-yl)-1H-indol-3-ylsulfanyl]-2-fluoro-benzoic acid]
9 | > 6.52 | CCn1cc(-n2c(C)c(Sc3cccc(C(=O)NS(=O)(=O)c4ccccc4)c3F)c3ccc(Cl)c(F)c32)cn1 [Compound 4-7, N-{3-[6-Chloro-1-(1-ethyl-1H-pyrazol-4-yl)-7-fluoro-2-methyl-1H-indol-3-ylsulfanyl]-2-fluoro-benzoyl}-benzenesulfonamide]
10 | > 6.52 | CCCn1cc(-n2c(C)c(Sc3cccc(C(=O)NS(=O)(=O)c4ccccc4)c3F)c3ccc(Cl)c(F)c32)cn1 [Compound 4-8, N-{3-[6-Chloro-1-(1-propyl-1H-pyrazol-4-yl)-7-fluoro-2-methyl-1H-indol-3-ylsulfanyl]-2-fluoro-benzoyl}-benzenesulfonamide]
11 | > 6.52 | CCn1cc(-n2c(C)c(Sc3ccc(C)c(C(=O)O)c3)c3ccc(Cl)c(F)c32)cn1 [Compound 4-9, 5-[6-Chloro-1-(1-ethyl-1H-pyrazol-4-yl)-7-fluoro-2-methyl-1H-indol-3-ylsulfanyl]-2-methyl-benzoic acid]
12 | > 6.52 | CCn1cc(-n2c(C)c(Sc3cccc(C(=O)O)c3F)c3c(F)cc(Cl)cc32)cn1 [Compound 4-11, 3-[6-Chloro-1-(1-ethyl-1H-pyrazol-4-yl)-4-fluoro-2-methyl-1H-indol-3-ylsulfanyl]-2-fluoro-benzoic acid]
13 | > 6.52 | CCCn1cc(-n2c(C)c(Sc3cccc(CC(=O)O)c3F)c3ccc(Cl)c(F)c32)cn1 [Compound 4-12, {3-[6-Chloro-7-fluoro-2-methyl-1-(1-propyl-1H-pyrazol-4-yl)-1H-indol-3-ylsulfanyl]-2-fluoro-phenyl}-acetic acid]
14 | > 6.52 | CCn1cc(-n2c(C)c(Sc3cccc(CC(=O)O)c3F)c3ccc(Cl)c(F)c32)cn1 [Compound 4-15, {3-[6-Chloro-1-(1-ethyl-1H-pyrazol-4-yl)-7-fluoro-2-methyl-1H-indol-3-ylsulfanyl]-2-fluoro-phenyl}-acetic acid]

From patent US9000025B2, “Autotaxin inhibitors and uses thereof” (Amira Pharmaceuticals, Inc., priority 2010, dated 2015)
